In this test the test system is breast cancer 4T1 cells. As to the kind of experiment: In vitro calreticulin (CRT) translocation by flow cytometry. In kind it is cell-based. To be noted: anti-CRT antibody staining, vs untreated control, FIG. 6A. As for the experimental part: In a further experiment the ability of doxorubicin and doxorubicin double spacer prodrug and doxorubicin double spacer prodrug in polymeric micelles to induce immunogenicity of tumor cells was assessed in vitro. As one of the most studied phenotypes of immunogenic cell death, calreticulin (CRT) […] to outer surface of cancer cells is able to attract antigen presenting cells to endocytose apoptotic cancer cells. CRT translocation was measured by flow cryometry. To assess CRT translocation induced by the formulations, they were added to breast cancer 4T1 cells which were cultured overnight at 37° C. in RPMI 1640 medium containing 10% FBS and 1% penicillin. After incubation, the cells were washed with PBS and then detached. The CRT translocated to the outer surface of the cells was labeled with anti-CRT antibodies.
On the technique in general: Flow cytometry measures light scatter and fluorescence of single cells or particles in a stream.

For the molecule `COc1cccc2c1C(=O)c1c(O)c3c(c(O)c1C2=O)C[C@@](O)(C(=O)CO)C[C@@H]3O[C@H]1C[C@H](N)[C@H](O)[C@H](C)O1` [DOX, doxorubicin], the “signal of CRT in flow cytometry plots” value is “higher signal of CRT compared to untreated control”.

(Values after US20230293432A1, “POLYMERIC MICELLES COMPRISING GLUCURONIDE-PRODRUGS” (Rheinisch-Westfälische Technische Hochschule (RWTH), priority 2020, published 2023).)
